Laboratory results: ChEMBL document CHEMBL1201862, “PubChem BioAssay data set” (2004)
Active and inactive are the calls of the source.

Experiments:
[1] = target: Eukaryotic translation initiation factor 4H (Homo sapiens, UniProt Q15056); experiment: human eIF4H binding inhibitors, primary screen, translation initiation inhibitor project, biochemical, uHTS, fluorescence polarization (AID 2012)
[2] = target: T1, DNA dC->dU-editing enzyme APOBEC-3A (Homo sapiens, UniProt P31941); experiment: Dose Response confirmation of small molecule APOBEC3A DNA Deaminase Inhibitors via a fluorescence-based single-stranded DNA deaminase assay. [Related pubchem assays (depositor defined):AID493011, AID493024]; type: functional
T1 sequence (P31941 whole entry): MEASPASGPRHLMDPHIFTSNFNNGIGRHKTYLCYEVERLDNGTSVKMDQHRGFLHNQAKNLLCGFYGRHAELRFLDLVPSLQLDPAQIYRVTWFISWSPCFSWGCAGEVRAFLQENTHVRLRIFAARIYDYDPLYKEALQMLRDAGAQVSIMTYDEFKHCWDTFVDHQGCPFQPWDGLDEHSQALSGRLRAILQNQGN

[3] = target: T2, DNA dC->dU-editing enzyme APOBEC-3G (Homo sapiens, UniProt Q9HC16); type: functional
T2 sequence (Q9HC16 whole entry): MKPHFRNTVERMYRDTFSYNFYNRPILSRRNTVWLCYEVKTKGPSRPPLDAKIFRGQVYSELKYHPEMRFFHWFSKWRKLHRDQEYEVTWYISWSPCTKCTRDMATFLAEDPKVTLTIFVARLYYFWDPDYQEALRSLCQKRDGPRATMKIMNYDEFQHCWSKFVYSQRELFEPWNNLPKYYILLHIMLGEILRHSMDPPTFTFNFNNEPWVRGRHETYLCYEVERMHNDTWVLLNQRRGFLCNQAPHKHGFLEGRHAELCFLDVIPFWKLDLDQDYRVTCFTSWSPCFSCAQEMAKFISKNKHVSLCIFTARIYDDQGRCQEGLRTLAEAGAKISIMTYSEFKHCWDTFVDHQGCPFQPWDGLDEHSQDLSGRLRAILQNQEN

[4] = target: Polyadenylate-binding protein 1 (Homo sapiens, UniProt P11940); experiment: PABP poly(A) RNA binding inhibitors, primary screen, biochemical, fluorescence polarization, uHTS (AID 2014)
Hexokinase HKDC1 = target: T3, Hexokinase HKDC1 (Homo sapiens, UniProt Q2TB90); experiment: HKDC1 hexokinase inhibitors, dose response, biochemical, W721R variant (AID 504729); type: functional
T3 sequence (Q2TB90 whole entry): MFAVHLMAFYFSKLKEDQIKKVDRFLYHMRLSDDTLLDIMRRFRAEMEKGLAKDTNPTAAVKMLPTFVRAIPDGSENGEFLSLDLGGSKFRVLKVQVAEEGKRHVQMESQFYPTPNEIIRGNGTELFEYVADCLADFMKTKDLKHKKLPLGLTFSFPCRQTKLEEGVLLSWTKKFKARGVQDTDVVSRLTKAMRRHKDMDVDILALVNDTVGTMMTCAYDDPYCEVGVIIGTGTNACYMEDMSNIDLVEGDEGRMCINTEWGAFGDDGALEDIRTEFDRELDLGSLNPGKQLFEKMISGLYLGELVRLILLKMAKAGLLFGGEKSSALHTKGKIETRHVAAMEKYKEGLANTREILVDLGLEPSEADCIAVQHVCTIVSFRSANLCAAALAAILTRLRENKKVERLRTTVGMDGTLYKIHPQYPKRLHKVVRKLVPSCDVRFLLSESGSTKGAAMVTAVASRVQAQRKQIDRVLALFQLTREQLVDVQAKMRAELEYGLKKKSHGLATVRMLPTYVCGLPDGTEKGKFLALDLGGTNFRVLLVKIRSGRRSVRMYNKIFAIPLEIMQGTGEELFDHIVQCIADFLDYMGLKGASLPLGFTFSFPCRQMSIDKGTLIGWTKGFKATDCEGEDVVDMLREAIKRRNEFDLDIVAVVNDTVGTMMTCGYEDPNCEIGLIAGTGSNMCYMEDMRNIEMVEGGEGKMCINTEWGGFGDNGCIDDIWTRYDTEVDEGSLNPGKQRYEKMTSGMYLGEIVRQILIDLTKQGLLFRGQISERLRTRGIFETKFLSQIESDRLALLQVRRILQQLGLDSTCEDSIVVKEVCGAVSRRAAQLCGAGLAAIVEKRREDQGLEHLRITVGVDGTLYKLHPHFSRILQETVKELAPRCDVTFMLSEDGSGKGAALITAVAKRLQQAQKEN

Hexokinase-1 = target: T4, Hexokinase-1 (Homo sapiens, UniProt P19367); experiment: hexokinase 1 activators, dose response, selectivity assay for HKDC1 activator project, biochemical (AID 504762); type: functional
T4 sequence (P19367 whole entry): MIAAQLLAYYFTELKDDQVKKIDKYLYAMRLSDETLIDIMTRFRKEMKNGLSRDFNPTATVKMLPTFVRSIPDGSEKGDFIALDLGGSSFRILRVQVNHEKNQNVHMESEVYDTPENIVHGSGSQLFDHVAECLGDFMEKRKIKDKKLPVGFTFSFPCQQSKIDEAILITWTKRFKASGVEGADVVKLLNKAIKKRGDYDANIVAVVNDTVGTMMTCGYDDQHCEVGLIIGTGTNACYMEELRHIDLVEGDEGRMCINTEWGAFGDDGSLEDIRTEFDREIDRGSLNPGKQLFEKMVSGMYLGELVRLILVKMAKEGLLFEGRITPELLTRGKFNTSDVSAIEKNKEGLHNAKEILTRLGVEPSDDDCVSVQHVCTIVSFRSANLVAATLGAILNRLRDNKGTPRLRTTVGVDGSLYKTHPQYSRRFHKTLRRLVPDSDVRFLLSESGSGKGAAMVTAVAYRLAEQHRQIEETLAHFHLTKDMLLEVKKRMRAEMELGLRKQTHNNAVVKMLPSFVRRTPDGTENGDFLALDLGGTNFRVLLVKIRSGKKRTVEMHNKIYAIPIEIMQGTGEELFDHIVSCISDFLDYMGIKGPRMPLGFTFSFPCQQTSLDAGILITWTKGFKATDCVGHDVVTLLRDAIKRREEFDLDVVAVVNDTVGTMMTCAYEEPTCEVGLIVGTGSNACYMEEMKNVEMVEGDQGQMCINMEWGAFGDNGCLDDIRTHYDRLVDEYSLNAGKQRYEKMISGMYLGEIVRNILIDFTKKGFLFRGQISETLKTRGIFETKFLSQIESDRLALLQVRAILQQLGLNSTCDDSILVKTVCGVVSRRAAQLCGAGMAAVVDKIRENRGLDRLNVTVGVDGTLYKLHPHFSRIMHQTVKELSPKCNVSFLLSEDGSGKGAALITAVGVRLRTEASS

[5] = Vero E6 cell cytotoxicity, dose response, cytotoxicity control for non-replicating M. tuberculosis project, secondary assay (AID 492998); type: functional, VeroE6; conditions: Vero C1008
[6] = HepG2 cell cytotoxicity, dose response, cytotoxicity control for non-replicating M. tuberculosis project (AID 489018); type: functional; conditions: Mycobacterium tuberculosis
[7] = THP-1 cell cytotoxicity, dose response, cytotoxicity control for non-replicating M. tuberculosis project (AID 489025); type: functional
Nonstructural protein 1 = Nonstructural protein 1 (Influenza A virus, UniProt Q194T2); type: functional, Influenza A virus (A/California/07/2009(H1N1))
Chain of Nonstructural protein 1 (Q194T2 whole entry): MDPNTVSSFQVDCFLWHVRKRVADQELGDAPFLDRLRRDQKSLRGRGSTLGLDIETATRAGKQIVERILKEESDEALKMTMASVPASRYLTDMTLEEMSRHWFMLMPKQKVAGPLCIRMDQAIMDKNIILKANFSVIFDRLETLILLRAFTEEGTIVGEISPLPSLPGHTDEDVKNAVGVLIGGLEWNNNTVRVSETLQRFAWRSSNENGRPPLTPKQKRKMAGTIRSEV

cells [8] = type: functional, cell-based
cells [9] = type: functional, cell-based; remark: listed apart in the source
cells [10] = type: functional
[11] = microbe, parasite or virus in culture; type: functional; conditions: Mycobacterium tuberculosis
[12] = target: T5, Voltage-gated N-type calcium channel alpha-1B subunit/Amyloid beta A4 precursor protein-binding family A member 1 (Homo sapiens, UniProt Q00975+Q02410); type: protein assay
T5 sequence (Q00975 whole entry): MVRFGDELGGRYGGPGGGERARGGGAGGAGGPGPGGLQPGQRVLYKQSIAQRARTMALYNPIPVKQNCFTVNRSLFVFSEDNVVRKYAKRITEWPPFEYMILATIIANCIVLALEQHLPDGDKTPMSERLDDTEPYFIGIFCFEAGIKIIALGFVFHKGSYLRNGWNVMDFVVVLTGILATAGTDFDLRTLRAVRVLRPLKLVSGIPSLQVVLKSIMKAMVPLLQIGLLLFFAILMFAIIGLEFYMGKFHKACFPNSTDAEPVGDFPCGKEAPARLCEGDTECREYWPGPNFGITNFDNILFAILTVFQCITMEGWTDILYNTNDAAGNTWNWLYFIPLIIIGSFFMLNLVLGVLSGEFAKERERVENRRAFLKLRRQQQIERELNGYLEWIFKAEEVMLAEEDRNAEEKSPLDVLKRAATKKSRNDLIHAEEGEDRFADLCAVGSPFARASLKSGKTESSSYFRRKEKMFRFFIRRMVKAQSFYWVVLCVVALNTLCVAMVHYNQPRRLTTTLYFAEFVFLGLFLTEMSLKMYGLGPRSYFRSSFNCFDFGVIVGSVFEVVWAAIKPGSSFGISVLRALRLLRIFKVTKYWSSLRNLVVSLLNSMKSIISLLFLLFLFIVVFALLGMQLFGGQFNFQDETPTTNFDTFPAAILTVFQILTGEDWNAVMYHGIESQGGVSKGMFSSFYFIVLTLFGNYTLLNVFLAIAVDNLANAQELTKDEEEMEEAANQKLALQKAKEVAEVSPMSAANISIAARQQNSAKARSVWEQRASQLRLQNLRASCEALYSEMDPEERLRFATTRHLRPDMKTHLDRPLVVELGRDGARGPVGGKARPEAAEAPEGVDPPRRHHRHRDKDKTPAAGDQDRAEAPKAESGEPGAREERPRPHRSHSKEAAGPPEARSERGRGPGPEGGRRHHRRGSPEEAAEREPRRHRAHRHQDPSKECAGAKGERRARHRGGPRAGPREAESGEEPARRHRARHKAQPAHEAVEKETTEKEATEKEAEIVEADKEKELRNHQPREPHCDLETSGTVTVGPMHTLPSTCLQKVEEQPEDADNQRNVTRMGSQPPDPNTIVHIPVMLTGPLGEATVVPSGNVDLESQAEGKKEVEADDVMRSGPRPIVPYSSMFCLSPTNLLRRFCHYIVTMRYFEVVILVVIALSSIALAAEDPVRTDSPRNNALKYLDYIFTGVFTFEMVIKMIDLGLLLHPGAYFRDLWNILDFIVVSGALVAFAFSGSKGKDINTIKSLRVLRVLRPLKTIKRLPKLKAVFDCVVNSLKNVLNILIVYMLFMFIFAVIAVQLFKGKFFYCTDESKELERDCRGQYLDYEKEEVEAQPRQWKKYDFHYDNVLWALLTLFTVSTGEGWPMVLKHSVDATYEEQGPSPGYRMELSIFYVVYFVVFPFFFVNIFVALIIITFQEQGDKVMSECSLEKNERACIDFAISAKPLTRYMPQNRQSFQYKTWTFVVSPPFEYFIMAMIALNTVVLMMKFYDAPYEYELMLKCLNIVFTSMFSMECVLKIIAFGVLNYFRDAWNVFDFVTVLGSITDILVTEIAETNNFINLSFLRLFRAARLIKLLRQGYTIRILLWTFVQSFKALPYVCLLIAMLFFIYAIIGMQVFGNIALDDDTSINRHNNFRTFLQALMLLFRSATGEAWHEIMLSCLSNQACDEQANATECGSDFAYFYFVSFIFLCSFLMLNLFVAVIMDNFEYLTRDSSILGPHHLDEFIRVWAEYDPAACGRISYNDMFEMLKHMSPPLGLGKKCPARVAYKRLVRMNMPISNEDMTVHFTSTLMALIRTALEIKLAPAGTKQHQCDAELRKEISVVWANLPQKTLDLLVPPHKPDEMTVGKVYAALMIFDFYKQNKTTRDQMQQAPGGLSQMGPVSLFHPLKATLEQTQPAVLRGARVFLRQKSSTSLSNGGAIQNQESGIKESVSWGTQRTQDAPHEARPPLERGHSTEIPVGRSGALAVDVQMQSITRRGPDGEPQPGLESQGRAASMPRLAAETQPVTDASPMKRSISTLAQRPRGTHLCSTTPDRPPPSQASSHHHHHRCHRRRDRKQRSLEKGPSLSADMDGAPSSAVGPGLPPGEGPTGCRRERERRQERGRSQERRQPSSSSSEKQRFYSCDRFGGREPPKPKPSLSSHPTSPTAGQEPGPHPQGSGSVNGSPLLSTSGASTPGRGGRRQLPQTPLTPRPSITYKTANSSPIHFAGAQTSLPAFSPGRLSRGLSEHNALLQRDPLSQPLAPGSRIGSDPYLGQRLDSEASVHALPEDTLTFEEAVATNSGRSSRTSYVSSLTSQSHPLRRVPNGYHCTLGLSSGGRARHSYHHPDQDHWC
T5 sequence (Q02410 whole entry): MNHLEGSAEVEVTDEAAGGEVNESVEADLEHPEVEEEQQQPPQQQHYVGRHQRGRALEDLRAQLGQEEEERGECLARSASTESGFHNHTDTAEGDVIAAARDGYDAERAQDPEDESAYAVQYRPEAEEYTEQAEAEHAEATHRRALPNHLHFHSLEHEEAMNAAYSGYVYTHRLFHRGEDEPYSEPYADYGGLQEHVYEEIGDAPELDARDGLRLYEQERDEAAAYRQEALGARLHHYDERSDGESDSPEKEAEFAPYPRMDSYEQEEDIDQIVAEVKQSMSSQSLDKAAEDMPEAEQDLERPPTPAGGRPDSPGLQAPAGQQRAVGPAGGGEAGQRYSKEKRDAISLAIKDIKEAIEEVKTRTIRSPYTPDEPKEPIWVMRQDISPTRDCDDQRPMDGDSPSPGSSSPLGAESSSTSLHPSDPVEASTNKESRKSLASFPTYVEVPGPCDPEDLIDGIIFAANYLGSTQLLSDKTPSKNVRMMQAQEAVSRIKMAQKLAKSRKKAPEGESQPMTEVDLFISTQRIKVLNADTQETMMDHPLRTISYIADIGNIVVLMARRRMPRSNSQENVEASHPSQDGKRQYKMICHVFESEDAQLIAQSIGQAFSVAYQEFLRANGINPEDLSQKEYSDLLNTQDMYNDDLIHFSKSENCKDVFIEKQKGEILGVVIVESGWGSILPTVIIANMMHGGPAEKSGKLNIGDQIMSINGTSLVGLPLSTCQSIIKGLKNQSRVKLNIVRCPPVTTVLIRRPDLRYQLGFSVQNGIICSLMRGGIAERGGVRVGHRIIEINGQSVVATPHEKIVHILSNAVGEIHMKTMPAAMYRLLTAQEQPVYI

Large T antigen = Large T antigen (Simian virus 40, UniProt P03070); type: functional, Betapolyomavirus macacae;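 further: Confirmatory-stage PubChem screen for compounds that inhibit SV40 T antigen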
[13] = target: Eukaryotic translation initiation factor 4E (Mus musculus, UniProt P63073); experiment: eIF4E–eIF4G protein interaction inhibitors, dose response, biochemical, TR-FRET (AID 855); type: functional;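 further: potency for disrupting eIF4E binding to eIF4GI seen as loss of FRET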
Chain of Eukaryotic translation initiation factor 4E (P63073 whole entry): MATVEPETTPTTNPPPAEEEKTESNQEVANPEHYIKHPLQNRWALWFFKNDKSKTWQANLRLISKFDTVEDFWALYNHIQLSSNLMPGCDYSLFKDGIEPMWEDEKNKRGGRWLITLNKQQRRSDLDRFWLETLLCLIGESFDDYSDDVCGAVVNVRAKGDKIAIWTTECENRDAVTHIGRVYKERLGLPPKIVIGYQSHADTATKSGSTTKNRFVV

[14] = target: T5, Voltage-gated N-type calcium channel alpha-1B subunit/Amyloid beta A4 precursor protein-binding family A member 1; type: protein assay; remark: listed apart in the source
[15] = target: T1, DNA dC->dU-editing enzyme APOBEC-3A; experiment: APOBEC3A DNA deaminase inhibitors, dose response, biochemical (AID 504722); type: functional
[16] = target: T6, Ubiquitin-conjugating enzyme E2 N (Homo sapiens, UniProt P61088); type: functional
T6 sequence (P61088 whole entry): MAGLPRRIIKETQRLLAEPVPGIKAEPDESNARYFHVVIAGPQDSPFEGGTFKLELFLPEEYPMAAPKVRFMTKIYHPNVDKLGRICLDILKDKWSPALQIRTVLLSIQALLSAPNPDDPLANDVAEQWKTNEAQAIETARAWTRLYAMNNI

[17] = target: T6, Ubiquitin-conjugating enzyme E2 N; type: functional; remark: listed apart in the source
Bcl-2-related protein A1 = Bcl-2-related protein A1 (Mus musculus, UniProt Q07440); type: functional;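 further: confirmatory dose–response counterscreen on Bfl-1, used to check hits from a UBC13 polyubiquitin inhibitor campaign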
Chain of Bcl-2-related protein A1 (Q07440 whole entry): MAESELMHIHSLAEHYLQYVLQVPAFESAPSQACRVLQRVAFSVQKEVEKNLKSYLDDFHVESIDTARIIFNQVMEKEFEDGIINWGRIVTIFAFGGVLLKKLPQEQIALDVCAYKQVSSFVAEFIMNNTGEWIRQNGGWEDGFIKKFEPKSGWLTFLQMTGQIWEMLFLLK

[18] = target: T7, Rac GTPase-activating protein 1 (Homo sapiens, UniProt Q9H0H5); experiment: MgcRacGAP GTPase-activating activity inhibitors, confirmation, biochemical, ADP Hunter fluorescence, primary and confirmatory (AID 624330); type: functional
T7 sequence (Q9H0H5 whole entry): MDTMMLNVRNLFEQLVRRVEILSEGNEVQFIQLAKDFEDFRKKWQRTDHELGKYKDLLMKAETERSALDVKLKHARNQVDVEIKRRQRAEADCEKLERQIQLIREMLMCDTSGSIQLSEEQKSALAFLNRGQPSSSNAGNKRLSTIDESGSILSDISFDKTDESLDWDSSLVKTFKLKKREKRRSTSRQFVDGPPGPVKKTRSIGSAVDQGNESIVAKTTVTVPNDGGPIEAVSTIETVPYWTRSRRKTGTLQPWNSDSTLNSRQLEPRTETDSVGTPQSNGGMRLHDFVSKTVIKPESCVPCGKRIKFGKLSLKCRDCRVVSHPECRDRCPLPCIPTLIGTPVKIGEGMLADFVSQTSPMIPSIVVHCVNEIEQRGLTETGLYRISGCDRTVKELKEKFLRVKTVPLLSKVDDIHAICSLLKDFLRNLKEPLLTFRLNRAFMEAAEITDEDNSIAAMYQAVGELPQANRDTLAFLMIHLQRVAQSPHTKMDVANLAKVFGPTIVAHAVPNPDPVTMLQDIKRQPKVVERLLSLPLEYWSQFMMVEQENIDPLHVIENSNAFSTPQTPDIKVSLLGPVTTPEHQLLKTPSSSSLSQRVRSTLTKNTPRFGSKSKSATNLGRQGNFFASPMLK

[19] = target: T8, Corticotropin-releasing factor receptor 2/Corticotropin-releasing factor-binding protein (Homo sapiens, UniProt P24387+Q13324); experiment: activators of CRF receptor 2 with binding protein – uHTS hits, confirmation (AID 602473); type: functional; conditions: read-out: EC50_Mean
T8 sequence (Q13324 whole entry): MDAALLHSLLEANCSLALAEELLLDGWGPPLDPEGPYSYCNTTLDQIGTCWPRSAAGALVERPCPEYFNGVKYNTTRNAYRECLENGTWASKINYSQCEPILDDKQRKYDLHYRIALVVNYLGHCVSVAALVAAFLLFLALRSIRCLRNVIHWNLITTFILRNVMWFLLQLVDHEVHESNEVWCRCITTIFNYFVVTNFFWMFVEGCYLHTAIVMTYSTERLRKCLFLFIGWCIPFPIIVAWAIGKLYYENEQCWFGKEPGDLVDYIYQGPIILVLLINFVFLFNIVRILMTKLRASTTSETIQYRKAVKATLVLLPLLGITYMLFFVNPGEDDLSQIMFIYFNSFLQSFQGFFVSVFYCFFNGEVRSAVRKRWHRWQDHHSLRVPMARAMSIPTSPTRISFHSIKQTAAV
T8 sequence (P24387 whole entry): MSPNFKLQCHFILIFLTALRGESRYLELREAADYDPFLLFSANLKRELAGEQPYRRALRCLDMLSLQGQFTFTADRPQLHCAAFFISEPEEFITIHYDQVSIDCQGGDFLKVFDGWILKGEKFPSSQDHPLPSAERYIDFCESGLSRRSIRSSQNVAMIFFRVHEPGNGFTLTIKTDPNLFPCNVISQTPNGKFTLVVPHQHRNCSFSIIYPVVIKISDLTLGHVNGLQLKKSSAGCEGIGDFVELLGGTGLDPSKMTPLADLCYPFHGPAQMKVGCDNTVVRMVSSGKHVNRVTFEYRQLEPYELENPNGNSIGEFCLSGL

[20] = target: T9, Runt-related transcription factor 1/Core-binding factor subunit beta (Homo sapiens, UniProt Q01196+Q13951); experiment: inhibitors of RUNX1 Runt–CBFb-SMMHC binding, primary screen, biochemical, FRET, Cerulean-Runt, Venus-CBFb-SMMHC, uHTS (AID 1434); type: protein assay;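 further: partner is the CBFb-SMMHC leukemia fusion protein rather than wild-type CBFb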
T9 sequence (Q01196 whole entry, the tested form may be a part): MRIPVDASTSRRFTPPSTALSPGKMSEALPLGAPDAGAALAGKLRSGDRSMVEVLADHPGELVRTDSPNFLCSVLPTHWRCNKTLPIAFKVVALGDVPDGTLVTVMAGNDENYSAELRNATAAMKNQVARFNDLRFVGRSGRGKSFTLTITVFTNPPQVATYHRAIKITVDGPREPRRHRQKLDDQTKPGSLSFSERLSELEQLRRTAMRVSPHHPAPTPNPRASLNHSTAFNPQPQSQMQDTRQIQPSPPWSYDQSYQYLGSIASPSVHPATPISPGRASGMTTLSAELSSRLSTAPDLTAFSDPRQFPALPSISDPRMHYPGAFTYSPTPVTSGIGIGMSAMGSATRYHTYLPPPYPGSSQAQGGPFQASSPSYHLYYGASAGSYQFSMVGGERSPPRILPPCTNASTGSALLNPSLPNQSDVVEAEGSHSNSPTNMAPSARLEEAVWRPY
T9 sequence (Q13951 whole entry, the tested form may be a part): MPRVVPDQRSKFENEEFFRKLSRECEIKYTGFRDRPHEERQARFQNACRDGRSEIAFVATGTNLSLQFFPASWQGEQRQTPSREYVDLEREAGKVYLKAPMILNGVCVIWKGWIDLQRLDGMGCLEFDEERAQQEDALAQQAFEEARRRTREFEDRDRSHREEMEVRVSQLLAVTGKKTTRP

Estrogen receptor beta = Estrogen receptor beta (Homo sapiens, UniProt Q92731);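 further: recombinant ER-beta bound to coactivator SRC1 peptide in presence of estradiol agonist; inhibitors block coactivator peptide binding and lower the FRET signal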
[21] = target: T9, Runt-related transcription factor 1/Core-binding factor subunit beta; experiment: inhibitors of RUNX1 Runt–CBFb-SMMHC binding, biochemical, TR-FRET (AID 1438); type: protein assay
[22] = target: T2, DNA dC->dU-editing enzyme APOBEC-3G; experiment: Dose Response confirmation of small molecule APOBEC3G DNA Deaminase Inhibitors via a fluorescence-based single-stranded DNA deaminase assay. [Related pubchem assays (depositor defined):AID493012, AID493028]; type: functional

COC(=O)C1=C(C)N(Cc2ccccc2)C(NCCCCO)=N[C@H]1CCc1ccccc1
IC50 [1]: > 100 µM (inactive) | IC50 [2]: 3.51 µM (active) | IC50 [3]: 5.42 µM (active) | IC50 [4]: 18.9 µM (active)

O=C(c1ccccc1)c1nnc(-c2ccccc2)cc1O
IC50 (Hexokinase HKDC1): > 80 µM (inactive) | EC50 (Hexokinase-1): > 80 µM (inactive)

CNc1nc(-c2ccccn2)nnc1-c1ccccc1
CC50 [5]: 19.9 µM (active) | CC50 [6]: > 20 µM (active) | CC50 [7]: 19.1 µM (active) | IC50 (Nonstructural protein 1): 1.66 µM (active) | EC50 (cells [8]): > 350 µM (not active) | EC50 (cells [9]): 12.8 µM (active) | IC50 (cells [10]): 11.1 µM (active) | CC50 [11]: 13.3 µM (active)

COc1ccc(N2CSC3=C(C#N)C(c4cccs4)CC(=O)N3C2)cc1 (centres undefined)
IC50 [12]: 8.68 µM (active) | IC50 (Large T antigen): 10.7 µM (active) | IC50 [13]: > 64 µM (inactive) | IC50 [14]: > 50 µM (inactive) | IC50 [15]: 74.1 µM (active)

C#CCOCCOCCOCCNc1nc(N2CCN(C(=O)[C@H](CCCCN)n3cc([C@@H](N)C(C)CC)nn3)CC2)nc(N2CCN(C(=O)[C@H](CCCCN)n3cc([C@@H](N)CC(C)C)nn3)CC2)n1 (some centres undefined)
IC50 [16]: 7.14 µM (active) | IC50 [17]: 8.4 µM (active) | IC50 (Bcl-2-related protein A1): > 20 µM (inactive) | IC50 [18]: 114 µM (active)

Cc1cccc(S(=O)(=O)c2c(N)n(Cc3ccco3)c3nc4ccccc4nc23)c1
EC50 [19]: > 53 µM (inactive) | IC50 [20]: > 100 µM (inactive) | IC50 (Estrogen receptor beta): > 50 µM (not active) | IC50 [21]: > 100 µM (inactive)

Cc1cc(-c2nnc(S)n2/N=C/C=C/c2ccccc2)[nH]n1
IC50 [22]: 2.35 µM (active) | IC50 [15]: > 100 µM (inactive)

COc1cc(/C=N\NC(=O)c2sc(N)nc2C)cc(OC)c1OC
IC50 [16]: 0.386 µM (active) | IC50 [17]: 0.477 µM (active) | IC50 (Bcl-2-related protein A1): > 20 µM (inactive)

CC[n+]1cccc(-c2nc3ccccc3s2)c1
IC50 [2]: 3.65 µM (active) | IC50 [3]: 3.66 µM (active)
